Values of other authors in US9109266B2, “Process of producing sugar composition comprising D-psicose and D-allose via strong alkaline isomerization of D-glucose/D-fructose or alkaline pre-treatment of D-glucose/D-fructose followed by isomerization in the presence of a basic ion exchange resin” (MATSUTANI CHEMICAL INDUSTRY CO., LTD., priority 2009, dated 2015).
Read-outs that look alike come from different tables or passages of the source.

Experiments:
[1] = for Body fat decrement ratio (%) / Body weight decrement ratio (%) / Feed intake decrement ratio (%): compared with control group; for reduction of blood sugar level / reduction of insulin level: reports 1 and 2
[2] = non-patent reference 10 (report 4)
[3] = D-psicose administration; non-patent reference 11
[4] = Report 2, D-allose at 3% in total solids
[5] = Report 1, D-psicose at 5% in total solids

SMILES | Body fat decrement ratio (%) [1, 4] [%] | Body weight decrement ratio (%) [1, 4] [%] | Feed intake decrement ratio (%) [1, 4] [%] | reduction of blood sugar level [1] | reduction of insulin level [1] | contribution to body weight [2] | contribution to the amount of feed intake [2] | Body fat decrement ratio (%) [1, 5] [%] | Body weight decrement ratio (%) [1, 5] [%] | Feed intake decrement ratio (%) [1, 5] [%] | intra-day variation of insulin level [3]
O=C[C@H](O)[C@H](O)[C@H](O)[C@H](O)CO [D-allose] | 19 | 17 | 8 | No significant reduction | No significant reduction |  |  |  |  |  | 
O=C[C@@H](O)[C@@H](O)[C@H](O)[C@H](O)CO [D-mannose] |  |  |  |  |  | never makes any contribution | never makes any contribution |  |  |  | 
O=C(CO)[C@H](O)[C@H](O)[C@H](O)CO [D-psicose] |  |  |  | No significant reduction | No significant reduction |  |  | 15 | 6 | 6 | no reduction of insulin level
